Species: Rattus norvegicus
Assay: DrugMatrix - Regimen: Daily Repeat
Assay type: toxicity, organism-based, Sprague-Dawley
Set-up: regimen Daily Repeat, gender Male, age 6-8 weeks
Conditions: in vivo, po, route oral GAVAGE, vehicle 100 % SALINE
[1] = 0 mg/kg, 72 h, tissue Plasma, dose level Control, time 3 day
[2] = 0 mg/kg, 120 h, tissue Blood, dose level Control, time 5 day
[3] = 0 mg/kg, 120 h, tissue Plasma, dose level Control, time 5 day
[4] = 200 mg/kg, 72 h, tissue Blood, dose level Low, time 3 day
[5] = 200 mg/kg, 72 h, tissue Plasma, dose level Low, time 3 day
[6] = 200 mg/kg, 120 h, tissue Blood, dose level Low, time 5 day
[7] = 200 mg/kg, 120 h, tissue Plasma, dose level Low, time 5 day
[8] = 600 mg/kg, 72 h, tissue Blood, dose level High, time 3 day
[9] = 600 mg/kg, 72 h, tissue Plasma, dose level High, time 3 day
[10] = 600 mg/kg, 120 h, tissue Blood, dose level High, time 5 day
[11] = 600 mg/kg, 120 h, tissue Plasma, dose level High, time 5 day

## LEAD (II) ACETATE
[1]
  ALANINE AMINOTRANSFERASE: 50.67 u/L
  ALKALINE PHOSPHATASE: 356.33 u/L
  ASPARTATE AMINOTRANSFERASE: 78.17 u/L
  BLOOD UREA NITROGEN: 14.17 mg/dL
  CARBON DIOXIDE: 31.33 mmol/L
  CHLORIDE: 98.5 MEQ/L
  CHOLESTEROL: 76.5 mg/dL
  CREATINE PHOSPHOKINASE: 248.33 u/L
  CREATININE: 0.2 mg/dL
  LACTATE DEHYDROGENASE: 107 u/L
  LIPASE: 9.83 u/L
  PHOSPHORUS: 12.8 mg/dL
  POTASSIUM: 6.75 MEQ/L
  TOTAL BILIRUBIN: 0.18 mg/dL
  TOTAL PROTEIN: 5.98 G/DL
  URIC ACID: 1.42 mg/dL
[2]
  ABSOLUTE BASOPHIL: 0 CELLS/uL
  ABSOLUTE EOSINOPHIL: 0 CELLS/uL
  ABSOLUTE LYMPHOCYTE: 8681.17 CELLS/uL
  ABSOLUTE MONOCYTE: 79.83 CELLS/uL
  ABSOLUTE SEGMENTED NEUTROPHIL: 689 CELLS/uL
  BASOPHIL: 0%
  EOSINOPHIL: 0%
  ERYTHROCYTE COUNT: 5.49 x10E6/uL
  HEMATOCRIT: 33.55%
  HEMOGLOBIN: 13.1 G/DL
  LEUKOCYTE COUNT: 9.45 x10E3/uL
  LYMPHOCYTE: 92.33%
  MEAN CORPUSCULAR HEMOGLOBIN: 23.92 pg
  MEAN CORPUSCULAR HEMOGLOBIN CONCENTRATION: 39.07 G/DL
  MONOCYTE: 0.67%
  NEUTROPHIL: 7%
  NUCLEATED RED BLOOD CELLS: 0.17 /100WBC
  PLATELET COUNT: 1001.17 x10E3/uL
[3]
  ALANINE AMINOTRANSFERASE: 49.33 u/L
  ALKALINE PHOSPHATASE: 300.33 u/L
  ASPARTATE AMINOTRANSFERASE: 83.5 u/L
  BLOOD UREA NITROGEN: 16 mg/dL
  CHLORIDE: 100.5 MEQ/L
  CHOLESTEROL: 74.33 mg/dL
  CREATINE PHOSPHOKINASE: 489.67 u/L
  CREATININE: 0.35 mg/dL
  GLUCOSE: 151 mg/dL
  LACTATE DEHYDROGENASE: 133.67 u/L
  LIPASE: 11.17 u/L
  PHOSPHORUS: 10.88 mg/dL
  POTASSIUM: 5.5 MEQ/L
  SODIUM: 145.7 MEQ/L
  TOTAL BILIRUBIN: 0.2 mg/dL
  TOTAL PROTEIN: 6.05 G/DL
  URIC ACID: 0.68 mg/dL
[4]
  ABSOLUTE BASOPHIL: 0 CELLS/uL
  ABSOLUTE EOSINOPHIL: 42 CELLS/uL
  ABSOLUTE LYMPHOCYTE: 7845 CELLS/uL
  ABSOLUTE MONOCYTE: 45.67 CELLS/uL
  ABSOLUTE SEGMENTED NEUTROPHIL: 634 CELLS/uL
  BASOPHIL: 0%
  EOSINOPHIL: 0.67%
  ERYTHROCYTE COUNT: 5.3 x10E6/uL
  HEMATOCRIT: 32.4%
  HEMOGLOBIN: 12.73 G/DL
  LEUKOCYTE COUNT: 8.57 x10E3/uL
  LYMPHOCYTE: 91.67%
  MEAN CORPUSCULAR HEMOGLOBIN: 24.1 pg
  MONOCYTE: 0.67%
  NEUTROPHIL: 7%
  NUCLEATED RED BLOOD CELLS: 0.67 /100WBC
  PLATELET COUNT: 1060.33 x10E3/uL
[5]
  ALANINE AMINOTRANSFERASE: 44.33 u/L
  ALBUMIN: 4.1 G/DL
  ALKALINE PHOSPHATASE: 338.33 u/L
  ASPARTATE AMINOTRANSFERASE: 80.67 u/L
  BLOOD UREA NITROGEN: 14 mg/dL
  CHLORIDE: 100 MEQ/L
  CHOLESTEROL: 80 mg/dL
  CREATINE PHOSPHOKINASE: 412 u/L
  CREATININE: 0.48 mg/dL
  GLUCOSE: 189.33 mg/dL
  LACTATE DEHYDROGENASE: 140.33 u/L
  LIPASE: 11.67 u/L
  PHOSPHORUS: 13.53 mg/dL
  POTASSIUM: 5.59 MEQ/L
  TOTAL BILIRUBIN: 0.13 mg/dL
  TOTAL PROTEIN: 5.93 G/DL
  URIC ACID: 1.37 mg/dL
[6]
  ABSOLUTE BASOPHIL: 0 CELLS/uL
  ABSOLUTE EOSINOPHIL: 25 CELLS/uL
  ABSOLUTE MONOCYTE: 82.67 CELLS/uL
  ABSOLUTE SEGMENTED NEUTROPHIL: 668 CELLS/uL
  BASOPHIL: 0%
  EOSINOPHIL: 0.33%
  ERYTHROCYTE COUNT: 5.28 x10E6/uL
  HEMATOCRIT: 32.07%
  HEMOGLOBIN: 12.83 G/DL
  LEUKOCYTE COUNT: 11.1 x10E3/uL
  LYMPHOCYTE: 92.67%
  MEAN CORPUSCULAR HEMOGLOBIN: 24.3 pg
  MEAN CORPUSCULAR HEMOGLOBIN CONCENTRATION: 40.03 G/DL
  MONOCYTE: 0.67%
  NEUTROPHIL: 6.33%
  NUCLEATED RED BLOOD CELLS: 0.67 /100WBC
  PLATELET COUNT: 1339.67 x10E3/uL
[7]
  ALANINE AMINOTRANSFERASE: 57.33 u/L
  ALBUMIN: 3.9 G/DL
  ALKALINE PHOSPHATASE: 297 u/L
  ASPARTATE AMINOTRANSFERASE: 91 u/L
  BLOOD UREA NITROGEN: 14.33 mg/dL
  CARBON DIOXIDE: 30 mmol/L
  CHLORIDE: 99.33 MEQ/L
  CHOLESTEROL: 71.33 mg/dL
  CREATINE PHOSPHOKINASE: 225 u/L
  CREATININE: 0.46 mg/dL
  LACTATE DEHYDROGENASE: 122 u/L
  LIPASE: 9 u/L
  PHOSPHORUS: 10.9 mg/dL
  POTASSIUM: 5.95 MEQ/L
  TOTAL BILIRUBIN: 0.13 mg/dL
  TOTAL PROTEIN: 6.23 G/DL
  URIC ACID: 0.7 mg/dL
[8]
  ABSOLUTE BASOPHIL: 0 CELLS/uL
  ABSOLUTE EOSINOPHIL: 32.67 CELLS/uL
  ABSOLUTE LYMPHOCYTE: 9967.33 CELLS/uL
  ABSOLUTE MONOCYTE: 129.67 CELLS/uL
  ABSOLUTE SEGMENTED NEUTROPHIL: 570.33 CELLS/uL
  BASOPHIL: 0%
  EOSINOPHIL: 0.33%
  ERYTHROCYTE COUNT: 5.69 x10E6/uL
  HEMATOCRIT: 34.9%
  HEMOGLOBIN: 13.73 G/DL
  LEUKOCYTE COUNT: 10.7 x10E3/uL
  LYMPHOCYTE: 92.67%
  MEAN CORPUSCULAR HEMOGLOBIN: 24.13 pg
  NEUTROPHIL: 5.67%
  NUCLEATED RED BLOOD CELLS: 0.33 /100WBC
  PLATELET COUNT: 964.67 x10E3/uL
[9]
  ALANINE AMINOTRANSFERASE: 56.67 u/L
  ALKALINE PHOSPHATASE: 262 u/L
  ASPARTATE AMINOTRANSFERASE: 84.33 u/L
  BLOOD UREA NITROGEN: 13.33 mg/dL
  CHLORIDE: 99 MEQ/L
  CREATINE PHOSPHOKINASE: 319.33 u/L
  CREATININE: 0.55 mg/dL
  LACTATE DEHYDROGENASE: 97 u/L
  LIPASE: 14.33 u/L
  PHOSPHORUS: 11.57 mg/dL
  POTASSIUM: 5.33 MEQ/L
  TOTAL BILIRUBIN: 0.1 mg/dL
  TOTAL PROTEIN: 5.83 G/DL
  URIC ACID: 0.87 mg/dL
[10]
  ABSOLUTE BASOPHIL: 0 CELLS/uL
  ABSOLUTE EOSINOPHIL: 20.67 CELLS/uL
  ABSOLUTE LYMPHOCYTE: 6898.67 CELLS/uL
  ABSOLUTE MONOCYTE: 79.33 CELLS/uL
  ABSOLUTE SEGMENTED NEUTROPHIL: 568 CELLS/uL
  BASOPHIL: 0%
  EOSINOPHIL: 0.33%
  ERYTHROCYTE COUNT: 5.67 x10E6/uL
  HEMATOCRIT: 33.33%
  HEMOGLOBIN: 12.97 G/DL
  LEUKOCYTE COUNT: 7.57 x10E3/uL
  LYMPHOCYTE: 90.67%
  MEAN CORPUSCULAR HEMOGLOBIN: 22.87 pg
  MEAN CORPUSCULAR HEMOGLOBIN CONCENTRATION: 38.93 G/DL
  MEAN CORPUSCULAR VOLUME: 58.77 fL
  MONOCYTE: 1%
  NEUTROPHIL: 8%
  NUCLEATED RED BLOOD CELLS: 0 /100WBC
  PLATELET COUNT: 1398 x10E3/uL
[11]
  ALANINE AMINOTRANSFERASE: 48 u/L
  ALBUMIN: 4 G/DL
  ALKALINE PHOSPHATASE: 286.67 u/L
  ASPARTATE AMINOTRANSFERASE: 92.67 u/L
  BLOOD UREA NITROGEN: 13.33 mg/dL
  CHOLESTEROL: 76 mg/dL
  CREATINE PHOSPHOKINASE: 510.67 u/L
  CREATININE: 0.28 mg/dL
  GLUCOSE: 157.67 mg/dL
  LACTATE DEHYDROGENASE: 162.67 u/L
  LIPASE: 11 u/L
  POTASSIUM: 4.79 MEQ/L
  TOTAL BILIRUBIN: 0.13 mg/dL
  TOTAL PROTEIN: 5.6 G/DL
  URIC ACID: 0.33 mg/dL

Source: ChEMBL document CHEMBL3885881, “DrugMatrix”
